According to the supplement of paper PMC3068080:

Legend:
[1] = test system: TGFBR2 mRNA; assay: remaining TGFBR2 mRNA relative to control siRNA (off-target knock-down) (fraction of control); quantification method: branched DNA; higher = less knock-down
Experimental: (§1)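 Screen-hit siRNA duplexes (19-mer plus 3' dTdT overhang) were transiently transfected into HaCaT cells in 12-well plates. After 48 h, TGFBR1 and TGFBR2 mRNA were quantified by branched DNA assay (QuantiGene, normalised to HPRT1) or by SYBR qPCR (normalised to HPRT1/SMAD4). Values are the remaining mRNA relative to control-siRNA-transfected cells; 1-2 biological replicates.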

[2] = test system: TGFBR1 mRNA; assay: remaining TGFBR1 mRNA relative to control siRNA (off-target knock-down) (fraction of control); quantification method: branched DNA; higher = less knock-down
Experimental: as §1

Sequence | remaining TGFBR2 mRNA [1] | remaining TGFBR1 mRNA [2]
UAUAACUCUCAGGGGAUAUTT | 0.4 | 1.07
UAUAGUCCACAGACACGCUTT | 0.97 | 0.92
UAUCUCAUGAAAGCGCUUCTT | 0.25 | 1.12
UAUGCUCCUCUUCCUGUUCTT | 0.57 | 1.43
UCAACAAGCUAAGUCUGCCTT | 0.72 | 1.1
UCAAGCCCAGAGGUGUCAUTT | 1 | 1.24
UCAAGGUGGACAAAGCUCUTT | 0.29 | 0.74
UCAAGUGCAGUAGUAGAUGTT | 0.51 | 1.09
UCAAGUGCAUCUCCACAGCTT | 0.23 | 1.29
UCACCUUGCAGGAAGGAAGTT | 0.71 | 1.26
UCAUAAGCAUGCUCCACACTT | 0.62 | 0.14
UCAUAGCUCUGGCAUCGUCTT | 0.41 | 1.11
UCCAAGUCGAGAAGAGACCTT | 0.46 | 0.9
UCCACGAUGAAGGGAUGCUTT | 0.7 | 1.06
UCCAGCUGCAUUCCUCGCUTT | 0.35 | 0.75
UCCAGCUGUUUCGUUCCUCTT | 0.36 | 0.85
UCCAUGGAUGCAGAAGUCCTT | 0.56 | 0.96
UCCCGUACUGGUUCUGGGGTT | 0.81 | 1.1
UCCUGGAAGUUUGACGUCCTT | 1.41 | 0.88
UCCUUGGUCCAUUAGGAGATT | 0.22 | 0.61
UCCUUGGUCUCAUCUGCCUTT | 0.43 | 1.05
UCCUUGGUGUAUUCUAACATT | 0.42 | 0.93

Sequence | remaining TGFBR2 mRNA [1] | remaining TGFBR1 mRNA [2]
UCCUUGUCCUUGGACAGUGTT | 0.24 | 1.14
UCUACCCAGAACUCCACGATT | 1.01 | 0.14
UCUCAUUUACCCUUUGGGGTT | 0.33 | 0.67
UCUCGGAGGCAGUUCCAGCTT | 0.82 | 0.86
UCUGCAACGUAGAGGUUAUTT | 0.79 | 0.22
UCUGGUCUCAGCCAUUGAATT | 1.08 | 0.26
UCUUGGCUUUGACACCGAGTT | 0.39 | 0.48
UGAAGACAGUCCUAUGGACTT | 0.97 | 0.42
UGAAUAACCCUCUGGACAGTT | 0.83 | 0.45
UGAUAGCACCAACACAAAGTT | 0.74 | 0.44
UGAUGUUGAUCUGGGGCACTT | 0.54 | 0.55
UGAUGUUGUCUUGUCUGGUTT | 0.42 | 0.44
UGCAGUGAUAAAGGCUACATT | 0.67 | 0.34
UGCAUUGGCUCCCACUUCATT | 0.33 | 0.26
UGCGUUUACGGUUCACACGTT | 0.6 | 0.69
UGCUUAUCUCAUCUGAAGCTT | 0.28 | 0.93
UGCUUGAGUAGUGCUAGUUTT | 0.58 | 0.71
UGGAAGACGCUUUAAAGGCTT | 0.48 | 0.85
UGGACAUGGAGUGGCCUGATT | 0.55 | 1.09
UGGAGCUGCACAUAUUCCUTT | 0.27 | 1.2
UGGCCGUCAAUGUAUUUCUTT | 0.7 | 1.25
